Assay results as given in patent US8952024B2, “Herbicidal pyrimidone derivatives” (E I du Pont de Nemours and Company, priority 2009, dated 2015).

Assays:
Assay type in all cases: in vivo
[1] = tested on: barnyardgrass (Echinochloa crus-galli); assay: Test A pre-/postemergence plant response
Procedure, shortened: (§1)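 Each species was treated preemergence via directed soil spray and postemergence at the one- to two-leaf stage, with compounds formulated in a non-phytotoxic solvent plus surfactant. Visual injury relative to untreated controls was rated after about ten days on a 0–100 scale.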

corn (Zea mays) = assay: Test A pre-/postemergence plant response
Procedure, shortened: as §1

[2] = tested on: giant foxtail (Setaria faberii); assay: Test A pre-/postemergence plant response
Procedure, shortened: as §1

[3] = tested on: large crabgrass (Digitaria sanguinalis); assay: Test A pre-/postemergence plant response
Procedure, shortened: as §1

[4] = tested on: morningglory (Ipomoea spp.); assay: Test A pre-/postemergence plant response
Procedure, shortened: as §1

[5] = tested on: pigweed (Amaranthus retroflexus); assay: Test A pre-/postemergence plant response
Procedure, shortened: as §1

[6] = tested on: velvetleaf (Abutilon theophrasti); assay: Test A pre-/postemergence plant response
Procedure, shortened: as §1

[7] = tested on: wheat (Triticum aestivum); assay: Test A pre-/postemergence plant response
Procedure, shortened: as §1

[8] = tested on: winter barley (Hordeum vulgare); assay: Test B postemergence plant response; conditions: Postemergence; for Barley plant response rating: 250 g ai/ha, scale 0 to 100
From the text: At the same time, plants selected from these crop and weed species and also winter barley (Hordeum vulgare), canarygrass (Phalaris minor), chickweed (Stellaria media) and windgrass (Apera spica-venti) were planted in pots containing Redi-Earth® planting medium (Scotts Company, 14111 Scottslawn Road, Marysville, Ohio 43041) comprising spaghnum peat moss, vermiculite, wetting agent and starter nutrients and treated with postemergence applications of some of the test chemicals formulated in the same manner. Plants ranged in height from 2 to 18 cm (1- to 4-leaf stage) for postemergence treatments.
Treated plants and controls were maintained in a greenhouse for 13 to 15 days, after which time all treated plants were visually evaluated and compared to controls. Plant response ratings, summarized in Table B, are based on a scale of 0 to 100 where 0 is no effect and 100 is complete control. A dash (-) response means no test result.

[9] = tested on: barnyardgrass (Echinochloa crus-galli); assay: Test B flooded paddy test; conditions: for Plant response rating, Flood, Barnyardgrass: 250 g ai/ha, flooded paddy test, visual rating on 0 to 100 scale (0 no effect, 100 complete control) after 13 to 15 days; for Plant response rating, Barnyardgrass: Flood (flooded paddy test), 13 to 15 days
Procedure, shortened: (§2)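 Ratings are visual, 0–100 (100 = complete control), taken versus untreated controls 13 to 15 days after treatment in the greenhouse. Compound went straight into paddy water held 3 cm above soil, applied to 2-leaf-stage plants of four species.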

[10] = tested on: ducksalad (Heteranthera limosa); assay: Test B flooded paddy test; conditions: for Plant response rating, Flood, Ducksalad: 250 g ai/ha, flooded paddy test, visual rating on 0 to 100 scale (0 no effect, 100 complete control) after 13 to 15 days; for Plant response rating, Ducksalad: Flood (flooded paddy test), 13 to 15 days
Procedure, shortened: as §2

rice (Oryza sativa) = assay: Test B flooded paddy test; conditions: for Plant response rating, Flood, Rice: 250 g ai/ha, flooded paddy test, visual rating on 0 to 100 scale (0 no effect, 100 complete control) after 13 to 15 days; for Plant response rating, Rice: Flood (flooded paddy test), 13 to 15 days
Procedure, shortened: as §2

[11] = tested on: umbrella sedge (Cyperus difformis); assay: Test B flooded paddy test; conditions: for Plant response rating, Flood, Sedge, Umbrella: 250 g ai/ha, flooded paddy test, visual rating on 0 to 100 scale (0 no effect, 100 complete control) after 13 to 15 days; for Plant response rating, Sedge, Umbrella: Flood (flooded paddy test), 13 to 15 days
Procedure, shortened: as §2

[12] = Postemergence, 125 g ai/ha, visual injury, 0 to 100 scale (0 no effect, 100 complete control), approx. ten days
[13] = Postemergence, 500 g ai/ha, 0 to 100 scale, 0 = no effect, 100 = complete control, approx. ten days
[14] = Preemergence, 125 g ai/ha, 0 to 100 scale, 0 = no effect, 100 = complete control
[15] = Preemergence, 500 g ai/ha, visual injury, 0 to 100 scale (0 no effect, 100 complete control), approx. ten days
[16] = 31 g ai/ha, scale 0 to 100 (0 no effect, 100 complete control)
[17] = 62 g ai/ha, scale 0 (no effect) to 100 (complete control), 13 to 15 days
[18] = 125 g ai/ha, scale 0 to 100 (0 no effect, 100 complete control), 13 to 15 days
[19] = 31 g ai/ha, scale of 0 to 100 where 0 is no effect and 100 is complete control
[20] = 62 g ai/ha, scale 0 to 100, 0 is no effect, 100 is complete control
[21] = 125 g ai/ha, scale 0 to 100, 0 is no effect, 100 is complete control

For “3-cyclohexyl-5-[(2-hydroxy-6-oxo-1-cyclohexen-1-yl)carbonyl]-2-phenyl-4(3H)-pyrimidinone [Compound 128]”, the “Barnyardgrass plant response rating” value [1, 12] was 40, the “Plant response rating, Barnyardgrass” value [1, 13] was 100 and the “Plant response rating, Barnyardgrass” value [1, 14] was 0. The “Plant response rating, Barnyardgrass” value [1, 15] was 70, the “Corn plant response rating” value (corn (Zea mays); [12]) was 0 and the “Plant response rating, Corn” value (corn (Zea mays); [13]) was 20. For the same substance, the “Plant response rating, Corn” value (corn (Zea mays); [14]) was 0, the “Plant response rating, Corn” value (corn (Zea mays); [15]) was 0 and the “Foxtail, Giant plant response rating” value [2, 12] was 70. For the same substance, the “Plant response rating, Foxtail, Giant” value [2, 13] was 90, the “Plant response rating, Foxtail, Giant” value [2, 14] was 10 and the “Plant response rating, Foxtail, Giant” value [2, 15] was 50. For the same substance, the “Crabgrass, Large plant response rating” value [3, 12] was 50, the “Plant response rating, Crabgrass, Large” value [3, 13] was 90 and the “Plant response rating, Crabgrass, Large” value [3, 14] was 20. The “Plant response rating, Crabgrass, Large” value [3, 15] was 90, the “Morningglory plant response rating” value [4, 12] was 90 and the “Plant response rating, Morningglory” value [4, 13] was 90. The “Plant response rating, Morningglory” value [4, 14] was 0, the “Plant response rating, Morningglory” value [4, 15] was 70 and the “Pigweed plant response rating” value [5, 12] was 90. For the same substance, the “Plant response rating, Pigweed” value [5, 13] was 100, the “Plant response rating, Pigweed” value [5, 14] was 60 and the “Plant response rating, Pigweed” value [5, 15] was 100. The “Velvetleaf plant response rating” value [6, 12] was 100, the “Plant response rating, Velvetleaf” value [6, 13] was 100 and the “Plant response rating, Velvetleaf” value [6, 14] was 60. The “Plant response rating, Velvetleaf” value [6, 15] was 100, the “Wheat plant response rating” value [7, 12] was 0 and the “Plant response rating, Wheat” value [7, 13] was 0. The “Plant response rating, Wheat” value [7, 14] was 0, the “Plant response rating, Wheat” value [7, 15] was 0 and the “Plant response rating, Barley” value [8, 16] was 0. For the same substance, the “Plant response rating, Barley” value [8, 17] was 10, the “Plant response rating, Barley” value [8, 18] was 10 and the “Barley plant response rating” value [8] was 10. The “Plant response rating, Flood, Barnyardgrass” value [9] was 25, the “Plant response rating, Barnyardgrass” value [9, 19] was 0 and the “Plant response rating, Barnyardgrass” value [9, 20] was 0. For the same substance, the “Plant response rating, Barnyardgrass” value [9, 21] was 0, the “Plant response rating, Flood, Ducksalad” value [10] was 80 and the “Plant response rating, Ducksalad” value [10, 19] was 0. The “Plant response rating, Ducksalad” value [10, 20] was 0, the “Plant response rating, Ducksalad” value [10, 21] was 65 and the “Plant response rating, Flood, Rice” value (rice (Oryza sativa)) was 25. The “Plant response rating, Rice” value (rice (Oryza sativa); [19]) was 0, the “Plant response rating, Rice” value (rice (Oryza sativa); [20]) was 10 and the “Plant response rating, Rice” value (rice (Oryza sativa); [21]) was 20. For the same substance, the “Plant response rating, Flood, Sedge, Umbrella” value [11] was 85, the “Plant response rating, Sedge, Umbrella” value [11, 19] was 0 and the “Plant response rating, Sedge, Umbrella” value [11, 20] was 0. The “Plant response rating, Sedge, Umbrella” value [11, 21] was 40.

In the case of “5-[(2-hydroxy-6-oxo-1-cyclohexen-1-yl)carbonyl]-2,3-diphenyl-4(3H)-pyrimidinone [Compound 2]”, the “Barnyardgrass plant response rating” value [1, 12] is reported as 20, the “Plant response rating, Barnyardgrass” value [1, 13] is reported as 60 and the “Plant response rating, Barnyardgrass” value [1, 14] is reported as 0. The “Plant response rating, Barnyardgrass” value [1, 15] was 10, the “Corn plant response rating” value (corn (Zea mays); [12]) was 0 and the “Plant response rating, Corn” value (corn (Zea mays); [13]) was 0. The “Plant response rating, Corn” value (corn (Zea mays); [14]) was 0, the “Plant response rating, Corn” value (corn (Zea mays); [15]) was 0 and the “Foxtail, Giant plant response rating” value [2, 12] was 10. For the same substance, the “Plant response rating, Foxtail, Giant” value [2, 13] was 40, the “Plant response rating, Foxtail, Giant” value [2, 14] was 0 and the “Plant response rating, Foxtail, Giant” value [2, 15] was 10. The “Crabgrass, Large plant response rating” value [3, 12] was 50, the “Plant response rating, Crabgrass, Large” value [3, 13] was 80 and the “Plant response rating, Crabgrass, Large” value [3, 14] was 10. The “Plant response rating, Crabgrass, Large” value [3, 15] was 70, the “Morningglory plant response rating” value [4, 12] was 70 and the “Plant response rating, Morningglory” value [4, 13] was 90. For the same substance, the “Plant response rating, Morningglory” value [4, 15] was 50, the “Pigweed plant response rating” value [5, 12] was 70 and the “Plant response rating, Pigweed” value [5, 13] was 80. For the same substance, the “Plant response rating, Pigweed” value [5, 14] was 20, the “Plant response rating, Pigweed” value [5, 15] was 100 and the “Velvetleaf plant response rating” value [6, 12] was 100. For the same substance, the “Plant response rating, Velvetleaf” value [6, 13] was 100, the “Plant response rating, Velvetleaf” value [6, 14] was 60 and the “Plant response rating, Velvetleaf” value [6, 15] was 80. For the same substance, the “Wheat plant response rating” value [7, 12] was 10, the “Plant response rating, Wheat” value [7, 13] was 20 and the “Plant response rating, Wheat” value [7, 14] was 0. The “Plant response rating, Wheat” value [7, 15] was 0, the “Plant response rating, Barley” value [8, 16] was 0 and the “Plant response rating, Barley” value [8, 17] was 0. For the same substance, the “Plant response rating, Barley” value [8, 18] was 0, the “Barley plant response rating” value [8] was 0 and the “Plant response rating, Flood, Barnyardgrass” value [9] was 0. The “Plant response rating, Barnyardgrass” value [9, 19] was 0, the “Plant response rating, Barnyardgrass” value [9, 20] was 0 and the “Plant response rating, Barnyardgrass” value [9, 21] was 0. For the same substance, the “Plant response rating, Flood, Ducksalad” value [10] was 0, the “Plant response rating, Ducksalad” value [10, 19] was 0 and the “Plant response rating, Ducksalad” value [10, 20] was 0. The “Plant response rating, Ducksalad” value [10, 21] was 0, the “Plant response rating, Flood, Rice” value (rice (Oryza sativa)) was 0 and the “Plant response rating, Rice” value (rice (Oryza sativa); [19]) was 0. The “Plant response rating, Rice” value (rice (Oryza sativa); [20]) was 0, the “Plant response rating, Rice” value (rice (Oryza sativa); [21]) was 0 and the “Plant response rating, Flood, Sedge, Umbrella” value [11] was 0. The “Plant response rating, Sedge, Umbrella” value [11, 19] was 0, the “Plant response rating, Sedge, Umbrella” value [11, 20] was 0 and the “Plant response rating, Sedge, Umbrella” value [11, 21] was 0.
